Literature values, collected in US8471030B2, “Purification of montelukast using simulated moving bed” (Orochem Technologies Inc., priority 2010, dated 2013).

stability in acidic solutions (acidic solutions): degrade rapidly
stability in solution when exposed to light (in solution, exposed to light, forms the Montelukast-cis isomer): unstable when exposed to light
Compound: CC(C)(O)c1ccccc1CC[C@@H](SCC1(CC(=O)O)CC1)c1cccc(/C=C/c2ccc3ccc(Cl)cc3n2)c1 [Montelukast]
